From paper PMC7087482 (Journal of medicinal chemistry, 2020)
Entries after “also recorded” stand apart in the source; their conditions may differ.

Assays:
CYP3A4 [1] = target: T1, CYP3A4 (Homo sapiens, UniProt P08684); test: CW X-band EPR spectroscopy of CYP3A4-ligand complexes; conditions: CYP 200 μM, compound 400 μM, 10 K
CYP3A5 [2] = target: T2, CYP3A5 (Homo sapiens, UniProt P20815); test: UV-visible absorbance titration with purified recombinant CYP3A5; conditions: UV-visible Soret band shift
CYP3A5 [3] = target: T2, CYP3A5; test: CW X-band EPR spectroscopy of CYP3A5-ligand complexes; conditions: CYP 200 μM, compound 400 μM, 10 K
[4] = system: CYP1A2, 2B6, 2C8, 2C9, 2C19, and 2D6; test: Cytochrome P450 inhibition panel in pooled human liver microsomes; format: biochemical; conditions: 1.8 μM clobetasol, own probe substrate per CYP
CYP3A4 [5] = test: Western blot of CYP3A4 protein level after compound treatment; conditions: 1 μM compound, 24 h treatment
CYP3A4 [6] = target: T1, CYP3A4; test: Cytochrome P450 inhibition panel in pooled human liver microsomes; format: biochemical; conditions: 1.8 μM clobetasol
CYP3A5 [7] = target: T2, CYP3A5; test: CYP3A5 activity in AsPC-1 cells by 1-hydroxymidazolam formation; format: cell-based; conditions: 5 μM midazolam, 24 h
CYP3A4 [8] = target: T1, CYP3A4; test: P450-Glo luminescence biochemical inhibition assay; conditions: compound at 1.8 μM, DMSO 0.1%

Which “Heme iron spin state of CYP3A4 complex (EPR)” value (CYP3A4 [1]) does the source give for `Cc1ncc2n1-c1ccc(Cl)cc1C(c1ccccc1F)=NC2` [midazolam, Midazolam] here?
Its value is “an HS signal was induced”.

And the “Spectral shift type on titration with CYP3A5” value (CYP3A5 [2])?
The value was “typical type I CYP spectral shift”.

What about the “Heme iron spin state of CYP3A5 complex (EPR)” value (CYP3A5 [3]) of the same compound?
Its value is “five-coordinate HS ferric heme iron state”.

How did the “Heme iron spin state of CYP3A4 complex (EPR)” value (CYP3A4 [1]) turn out when `CCC(=O)O[C@]1(C(=O)CCl)[C@@H](C)C[C@H]2[C@@H]3CCC4=CC(=O)C=C[C@]4(C)[C@@]3(F)[C@@H](O)C[C@@]21C` [clobetasol, Clobetasol propionate] was run?
The value was “no new HS formation”.

And the “Inhibition of other major human CYPs” value [4]?
The value was “little or no inhibition; also recorded: no significant inhibition”.

And the “Effect on CYP3A4 protein level (Western blot)” value (CYP3A4 [5])?
The value was “did not increase the protein level of CYP3A4”.

And the “Inhibition of CYP3A4-mediated catalysis, substrate midazolam” value (CYP3A4 [6])?
The value was “uninhibited”.

And the “Inhibition of CYP3A4-mediated catalysis, substrate testosterone” value (CYP3A4 [6])?
Its value is “uninhibited”.

What about the “Inhibition of CYP3A5 activity (1OH-MDZ formation)” value (CYP3A5 [7]; CYP3A5 overexpressed (+Dox) in WT or 3A5-/- AsPC-1 cells) of the same compound?
Its value is “inhibited the CYP3A5 activity”.

And the “Inhibition of CYP3A5 activity (1OH-MDZ formation) compared with ketoconazole” value (CYP3A5 [7]; parental AsPC-1 (WT) cells, dose-response)?
The value was “slightly more potent”.

And the “Heme iron spin state of CYP3A5 complex (EPR)” value (CYP3A5 [3])?
The value was “five-coordinate HS ferric heme iron state”.

And the “Inhibition of CYP3A4” value (CYP3A4 [8])?
Its value is “no inhibition”.

With `CC(=O)N1CCN(c2ccc(OCC3COC(Cn4ccnc4)(c4ccc(Cl)cc4Cl)O3)cc2)CC1` (stereo not shown) [ketoconazole, Ketoconazole] as the compound, how does the “Effect on CYP3A4 protein level (Western blot)” value (CYP3A4 [5]) read?
Its value is “increased CYP3A4 protein expression”.
